# Experimental data from US11186585B2 (priority 2018, dated 2021).
# Several values for one entry are separate records, joined by “and”; a condition that tells them apart may be missing. Identical values can stand only once. Marks after values point to notes of the source that are not given here.
# Assays:
# Sprague-Dawley rats = assay: Antinociceptive activity, cold ethanol tail-flick test after oral gavage; assay type: in vivo, rat; details: for analgesia in rats, in words: given orally, compared with equivalent dose of Nalbuphine (parent opioid); for Analgesia (rat): oral gavage in sesame oil, 60 uM/kg, one dose, tail-flick at −20° C., cutoff 40 seconds
# healthy volunteers [1] = assay: Double-blind trial, heat pain threshold (hot water at 50° C.) after oral capsule; assay type: in vivo, human; details: for % MPE (analgesia): oral, individual data, 33 45 mg, NB 35 mg, 39 68 mg
# Protocol: Double-blind, NB hydrochloride and NB-39 controlled, trial of the antinociceptive effect of oral NB-33 in healthy volunteers. […] Each week a healthy volunteer would receive a pill from the assigned set in a random fashion and take it orally. […]
# (§1) Following one week of a wash out period, each volunteer repeated the protocol until all pills from the assigned set were administered. The individual data for heat pain threshold as % MPE=[(test latency−baseline latency)/(baseline latency)]×100 and for miosis as % MPE=[(test diameter−baseline diameter)/(baseline diameter)]×100 are shown in Table 2 and Table 3 respectively.
# (§2) Independent samples t-test was used to compare the means of % MPE analgesia and miosis in the two pairs of samples: NB-33 and NB and NB-33 and NB-39. All analyses were made using SPSS (v.25). • Bold indicates statistical significance at α=0.05
# healthy volunteers [2] = assay: Double-blind trial, miosis after oral capsule; assay type: in vivo, human; details: for % MPE (miosis): oral, individual data, 33 45 mg, NB 35 mg, 39 68 mg
# Protocol: Double-blind, NB hydrochloride and NB-39 controlled, trial of the antinociceptive effect of oral NB-33 in healthy volunteers. Each of the three healthy volunteers was assigned a set of 6 non-transparent gelatin capsules as follows: 2×NB hydrochloride (MW=393.4; 39 mg), 2×NB-33 (MW=451.6; 45 mg) and 2×NB-39 (MW=680.0; 68 mg). Each week a healthy volunteer would receive a pill from the assigned set in a random fashion and take it orally. At T=0 hr, 0.25 hr, 0.5 hr, 1 hr, 1.5 hr, 2 hr, 3 hr and 5 hr followed oral administration a heat pain threshold was measured (hot water at 50° C.) as well as miosis.
# as §1, §2
# [3] = Stability in human plasma; details: 37° C., acceptance criteria: NLT than 20% of hydrolysis after 4 hrs
# [4] = Stability in the simulated gastro-intestinal fluid (sGIF); details: 0.5% pepsine in 0.1N aqueous HCl, 37° C.; acceptance: NLT 80% of the derivative still intact after 4 hrs
# rats = assay: Randall-Selitto test after SC dose; assay type: in vivo, rat; details: NB-33.HCl 3.9 mg/kg; for Randall-Selitto (g), individual animal: NB.HCl 3 mg/kg; for Randall-Selitto (g), Mean: mean of 5, NB.HCl 3 mg/kg
# Source text: FIG. 13 illustrate in the graphical form the results for 1310 NB-33, marked 1310, in comparison to the base NB compound NB, marked 1320 in FIG. 13.
# [5] = test system: Human recombinant opiate receptor (mu, kappa or delta); assay: Human recombinant opiate receptor panel, overall profile in words; assay type: cell-based; details: CHO-K1 cells, cAMP
# Protocol: (§3) Human recombinant opiate receptor (mu, kappa or delta) expressed in CHO-K1 cells were used. Test compound (NB-33)/or vehicle was incubated with the cells (4×10E5/mL) in modified HBSS pH 7.4 buffer at […] for 30 min. The reaction was evaluated for cAMP levels by TR-FRET. Compounds were screened at 0.3, 1 and 3 uM. by Eurofins Pharma Discovery Services.
# as §3, with “(NX-90)/or” for “(NB-33)/or”, “levels (cAMP and/or calcium flux)” for “levels”, “0.1, 0.3 and” for “0.3,”, “uM” for “and 3 uM.”
structure (smiles),measurement,setting,value
"CCCCCCCCCCCCCCCCCCCCCC(=O)Oc1ccc2c3c1OC1C(O)CCC4(O)C(C2)N(CC2CCC2)CCC314 (centres unmarked) [NB-39, 3-(cyclobutylmethyl)-4a,7-dihydroxy-2,3,4,4a,5,6,7,7a-octahydro-1H-4,12-methanobenzofuro[3,2-e]isoquinolin-9-yl docosanoate]","analgesia in rats, in words",Sprague-Dawley rats,inferior
same,Analgesia (rat),Sprague-Dawley rats,Inactive
same,% MPE (analgesia),healthy volunteers [1]; 0 hr (baseline),0.0 % MPE
same,% MPE (analgesia),healthy volunteers [1]; 0.25 hr,0.0 % MPE (2×) and 17.6 % MPE and 13.3 % MPE and 6.2 % MPE and 8.3 % MPE
same,% MPE (analgesia),healthy volunteers [1]; 0.5 hr,10.0 % MPE and 11.8 % MPE and 40.0 % MPE and 6.2 % MPE and 55.6 % MPE and 15.0 % MPE
same,% MPE (analgesia),healthy volunteers [1]; 1 hr,10.0 % MPE and 5.9 % MPE and 73.3 % MPE and 10.8 % MPE and 11.1 % MPE and 5.0 % MPE
same,% MPE (analgesia),healthy volunteers [1]; 1.5 hr,15.0 % MPE and 11.8 % MPE and 93.3 % MPE and −7.7 % MPE and 19.4 % MPE and 5.0 % MPE
same,% MPE (analgesia),healthy volunteers [1]; 2 hr,10.0 % MPE and 23.5 % MPE and 93.3 % MPE and 33.8 % MPE and 0.0 % MPE (2×)
same,% MPE (analgesia),healthy volunteers [1]; 2.5 hr,5.0 % MPE (2×) and 0.0 % MPE and 46.7 % MPE and −6.2 % MPE and 16.7 % MPE
same,% MPE (analgesia),healthy volunteers [1]; 3 hr,10.0 % MPE and 11.8 % MPE and 40.0 % MPE and 9.2 % MPE and 0.0 % MPE (2×)
same,% MPE (analgesia),healthy volunteers [1]; 5 hr,0.0 % MPE (2×) and 6.7 % MPE and −9.2 % MPE and −2.8 % MPE and 5.0 % MPE
same,"analgesia in humans, in words","healthy volunteers [1]; given orally, compared with equivalent dose of Nalbuphine (NB) and NB-39",inferior
same,% MPE (miosis),healthy volunteers [2]; 0 hr (baseline),0.0 % MPE
same,% MPE (miosis),healthy volunteers [2]; 0.25 hr,10.3 % MPE and 0.0 % MPE and 25.0 % MPE and 12.5 % MPE and 20.0 % MPE and 3.1 % MPE
same,% MPE (miosis),healthy volunteers [2]; 0.5 hr,14.9 % MPE and 0.0 % MPE and 16.7 % MPE and 9.4 % MPE (2×) and 26.7 % MPE
same,% MPE (miosis),healthy volunteers [2]; 1 hr,37.9 % MPE and 6.7 % MPE and 22.2 % MPE and 18.8 % MPE and 36.7 % MPE and 21.9 % MPE
same,% MPE (miosis),healthy volunteers [2]; 1.5 hr,37.9 % MPE and 6.7 % MPE and 33.3 % MPE and 21.9 % MPE and 23.3 % MPE and 25.0 % MPE
same,% MPE (miosis),healthy volunteers [2]; 2 hr,14.9 % MPE and 0.0 % MPE and 25.0 % MPE and 17.2 % MPE and 16.7 % MPE and 6.2 % MPE
same,% MPE (miosis),healthy volunteers [2]; 2.5 hr,14.9 % MPE and 6.7 % MPE and 11.1 % MPE and 6.2 % MPE and 13.3 % MPE and 9.4 % MPE
same,% MPE (miosis),healthy volunteers [2]; 3 hr,24.1 % MPE and 0.0 % MPE (3×) and 11.1 % MPE and 3.3 % MPE
same,% MPE (miosis),healthy volunteers [2]; 5 hr,3.4 % MPE and 0.0 % MPE (2×) and 11.1 % MPE and 13.3 % MPE and 3.1 % MPE
same,"effect on pupil dilation (miosis) in humans, in words",healthy volunteers [2]; oral administration,did not significantly affect
same,Stable in plasma,[3],No
same,Stable in sGIF,[4],Yes
"C/C=C/C=C/C(=O)Oc1ccc2c3c1OC1C(O)CCC4(O)C(C2)N(CC2CCC2)CCC314.Cl (centres unmarked) [NB-56, 3-(cyclobutylmethyl)-9-(((2E,4E)-hexa-2,4-dienoyl)oxy)-4a,7-dihydroxy-2,3,4,4a,5,6,7,7a-octahydro-1H-4,12-methanobenzofuro[3,2-e]isoquinolin-3-ium chloride]",Analgesia (rat),Sprague-Dawley rats,No
same,"Randall-Selitto (g), individual animal",rats; Post-dose 0.5 hr,121 g and 120 g and 207 g and 161 g and 96 g
same,"Randall-Selitto (g), Mean",rats; Post-dose 0.5 hr,141.0* g
same,"Randall-Selitto (g), individual animal",rats; Post-dose 1 hr,98 g and 103 g and 199 g and 73 g and 86 g
same,"Randall-Selitto (g), Mean",rats; Post-dose 1 hr,111.8 g
same,"Randall-Selitto (g), individual animal",rats; Post-dose 2 hr,99 g and 94 g and 214 g and 102 g and 85 g
same,"Randall-Selitto (g), Mean",rats; Post-dose 2 hr,118.8 g
same,"Randall-Selitto (g), individual animal",rats; Post-dose 4 hr,83 g and 71 g and 136 g and 63 g and 97 g
same,"Randall-Selitto (g), Mean",rats; Post-dose 4 hr,90.0 g
same,"Randall-Selitto (g), individual animal",rats; Post-dose 6 hr,79 g and 64 g and 101 g and 65 g and 85 g
same,"Randall-Selitto (g), Mean",rats; Post-dose 6 hr,78.8 g
same,"Randall-Selitto (g), individual animal",rats; Pre-treatment (baseline),93 g and 82 g and 98 g and 80 g and 96 g
same,"Randall-Selitto (g), Mean",rats; Pre-treatment (baseline),89.8 g
same,Stable in plasma,[3],No
same,Stable in sGIF,[4],Yes
"CC=C(OC)C(=O)Oc1ccc2c3c1OC1C(O)CCC4(O)C(C2)N(CC2CCC2)CCC314 (centres unmarked) [NB-58, 3-(cyclobutylmethyl)-4a,7-dihydroxy-2,3,4,4a,5,6,7,7a-octahydro-1H-4,12-methanobenzofuro[3,2-e]isoquinolin-9-yl 2-methoxybut-2-enoate]",Analgesia (rat),Sprague-Dawley rats,No
same,Stable in plasma,[3],No
same,Stable in sGIF,[4],No
"C/C=C/C=C/C(=O)Oc1ccc2c3c1OC1C(OC(C)=O)CCC4(O)C(C2)N(CC2CCC2)CCC314 (centres unmarked) [NB-76, 7-acetoxy-3-(cyclobutylmethyl)-4a-hydroxy-2,3,4,4a,5,6,7,7a-octahydro-1H-4,12-methanobenzofuro[3,2-e]isoquinolin-9-yl (2E,4E)-hexa-2,4-dienoate]",Analgesia (rat),Sprague-Dawley rats,moderate
same,Stable in plasma,[3],No
same,Stable in sGIF,[4],Yes
"O=C(/C=C/c1ccccc1)Oc1ccc2c3c1OC1C(O)CCC4(O)C(C2)N(CC2CCC2)CCC314 (centres unmarked) [NB-78, 3-(cyclobutylmethyl)-4a,7-dihydroxy-2,3,4,4a,5,6,7,7a-octahydro-1H-4,12-methanobenzofuro[3,2-e]isoquinolin-9-yl cinnamate]","analgesia in rats, in words",Sprague-Dawley rats,no analgesia
same,Analgesia (rat),Sprague-Dawley rats,Inactive
same,Stable in plasma,[3],No
same,Stable in sGIF,[4],Yes
"C=CCN1CCC23c4c5ccc(OC(=O)/C=C/C=C/C)c4OC2C(=O)CCC3(O)C1C5 (centres unmarked) [NX-90, 3-allyl-4a-hydroxy-7-oxo-2,3,4,4a,5,6,7,7a-octahydro-1H-4,12-methanobenzofuro[3,2-e]isoquinolin-9-yl (2E,4E)-hexa-2,4-dienoate]","pharmacological profile at opiate receptors, in words",[5],not a pharmacologically inert compound
